Test results published in PubChem BioAssay (NCI).
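Following 48 hours of exposure in 96-well plates, responses at five concentrations were used to interpolate endpoints linearly. The concentration for full growth arrest is given as TGI.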 Peptide text beside a SMILES is read from it. * marks the point of attachment. Boc = CC(C)(C)OC(=O)*; OBn = c1ccc(CO*)cc1

What was measured:
Assay in all cases: NCI-60 cell line screen, 48 h
[1] = test system: BT-549 breast
[2] = test system: COLO 205 colon
[3] = test system: HOP-92 NSCLC
[4] = test system: HT29 colon
[5] = test system: K-562 leukemia
[6] = test system: OVCAR-4 ovarian
[7] = test system: OVCAR-8 ovarian
[8] = test system: SF-295 CNS
[9] = test system: SF-539 CNS
[10] = test system: SK-MEL-5 melanoma
[11] = test system: SNB-19 CNS
[12] = test system: SR leukemia
[13] = test system: SW-620 colon
[14] = test system: UO-31 renal

Structure (SMILES)	TGI [1] [µM]	TGI [2] [µM]	TGI [3] [µM]	TGI [4] [µM]	TGI [5] [µM]	TGI [6] [µM]	TGI [7] [µM]	TGI [8] [µM]	TGI [9] [µM]	TGI [10] [µM]	TGI [11] [µM]	TGI [12] [µM]	TGI [13] [µM]	TGI [14] [µM]
COc1ccc2c(c1)N=C1CSC(c3cccc(Br)c3)N1C2 (centres undefined)	32.4	68.7	53.2	31.9	67.1	40.4	> 100	40.8	41.4	27.6	78.8	23.1	> 100	30.7
c1ccc(Nc2nnc(Cn3ccc4ccccc43)s2)cc1	> 100	> 100	> 100	> 100	> 100	> 100	> 100	80.9	> 100	> 100	> 100	> 100	> 100	> 100
COc1c2ccccc2c(OC)c2nc(C)ccc12	> 100	> 96.7	> 100	> 100	> 78.6	> 100	> 100	> 100	> 100	> 100	> 100	> 79.5	> 100	> 100
Cn1c(NS(=O)(=O)c2ccccc2)nc2ccccc21	> 100	> 100	> 100	> 100	> 100	> 100	> 100	> 100	> 100	> 100	> 100	> 100	> 100	> 100
CC(NC(=O)CNC(=O)OC(C)(C)C)C(=O)NC(Cc1ccccc1)C(=O)OCc1ccccc1 (stereo not drawn) (Boc-Gly-Ala-Phe-OBn; configuration not given here)	> 100	> 100	> 100	> 100	> 100	> 100	> 100	> 100	> 100	> 100	> 100	> 100	> 100	> 100
CCOC(=O)C(NC(=O)CC(C)C)(Nc1ccc(S(=O)(=O)Nc2nc(C)cc(C)n2)cc1)C(F)(F)F (centres undefined)	> 100	> 100	> 100	> 100	> 100	> 100	> 100	> 100	> 100	> 100	> 100	> 100	> 100	> 100
